Columns and labels:
Test in all cases: Test B pre-/postemergence plant response
Assay type in all cases: in vivo
[1] = tested on: blackgrass (Alopecurus myosuroides)
How it was run: (§1)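 Seeds were sown and sprayed preemergence, while plants at 2 to 18 cm (1- to 4-leaf stage) got postemergence sprays. Compounds were formulated in a non-phytotoxic solvent mixture with surfactant. After 13 to 15 days in a greenhouse, injury was rated visually against untreated controls, 0 (no effect) to 100 (complete control).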

[2] = tested on: catchweed bedstraw (Galium aparine); conditions: Preemergence
How it was run: as §1

[3] = tested on: common (oilseed) sunflower (Helianthus annuus); conditions: Preemergence
How it was run: as §1

corn (Zea mays) = tested on: corn (Zea mays)
How it was run: as §1

[4] = tested on: downy bromegrass (Bromus tectorum)
How it was run: as §1

[5] = tested on: eastern black (E.B.) nightshade (Solanum ptycanthum); conditions: Preemergence
How it was run: as §1

[6] = tested on: giant foxtail (Setaria faberii)
How it was run: as §1

[7] = tested on: green foxtail (Setaria viridis)
How it was run: as §1

[8] = tested on: johnsongrass (Sorghum halepense)
How it was run: as §1

[9] = tested on: morningglory (Ipomoea coccinea)
How it was run: as §1

[10] = tested on: pigweed (Amaranthus retroflexus)
How it was run: as §1

[11] = tested on: surinam grass (Brachiaria decumbens)
How it was run: as §1

[12] = tested on: woolly cupgrass (Eriochloa villosa)
How it was run: as §1

[13] = 8 g ai/ha, postemergence, 0-100 scale
[14] = 16 g ai/ha, postemergence, 0-100 scale
[15] = Postemergence, 31 g ai/ha, scale 0 to 100
[16] = Postemergence, 62 g ai/ha, scale 0 to 100, 0 no effect, 100 complete control
[17] = Preemergence, 8 g ai/ha, scale 0 to 100 (0 no effect, 100 complete control)
[18] = Preemergence, 31 g ai/ha, scale 0 to 100 (0 no effect, 100 complete control)
[19] = Preemergence, 62 g ai/ha, 0 to 100 scale, 0 no effect, 100 complete control
[20] = Preemergence, 16 g ai/ha, scale 0 to 100
[21] = 31 g ai/ha, scale 0 to 100 (0 no effect, 100 complete control)
[22] = 62 g ai/ha, 0 to 100 scale, 0 no effect, 100 complete control
[23] = 8 g ai/ha, scale 0 to 100 (0 no effect, 100 complete control)

COc1nn(C)c(=O)c(-n2nc(-c3ccc(Br)cc3)cc2C)c1O [Compound 82]
100: Plant response rating, Blackgrass [1, 15] | Plant response rating, Blackgrass [1, 16] | Plant response rating, Blackgrass [1, 18] | Plant response rating, Blackgrass [1, 19] | Corn plant response rating (corn (Zea mays); [14]) | Plant response rating, Corn (corn (Zea mays); [15]) | Plant response rating, Corn (corn (Zea mays); [16]) | Plant response rating, Bromegrass, Downy [4, 15] | Plant response rating, Bromegrass, Downy [4, 16] | Plant response rating, Bromegrass, Downy [4, 19] | Foxtail, Giant plant response rating [6, 14] | Plant response rating, Foxtail, Giant [6, 15] | Plant response rating, Foxtail, Giant [6, 16] | Plant response rating, Foxtail, Giant [6, 18] | Plant response rating, Foxtail, Giant [6, 19] | Foxtail, Giant plant response rating [6, 20] | Foxtail, Green plant response rating [7, 14] | Plant response rating, Foxtail, Green [7, 15] | Plant response rating, Foxtail, Green [7, 16] | Plant response rating, Foxtail, Green [7, 18] | Plant response rating, Foxtail, Green [7, 19] | Foxtail, Green plant response rating [7, 20] | Johnsongrass plant response rating [8, 13] | Johnsongrass plant response rating [8, 14] | Plant response rating, Johnsongrass [8, 15] | Plant response rating, Johnsongrass [8, 16] | Plant response rating, Johnsongrass [8, 19] | Plant response rating, Surinam Grass [11, 15] | Plant response rating, Surinam Grass [11, 16] | Plant response rating, Surinam Grass [11, 19] | Plant response rating, Cupgrass, Woolly [12, 16] | Plant response rating, Cupgrass, Woolly [12, 19]
40: Corn plant response rating (corn (Zea mays); [13])
70: Plant response rating, Sunflower [3, 21] | Foxtail, Green plant response rating [7, 17] | Johnsongrass plant response rating [8, 17]
60: Sunflower plant response rating ([3]; 16 g ai/ha, scale 0 to 100)
90: Cupgrass, Woolly plant response rating [12, 14]
55: Plant response rating, Morningglory [9, 16]
98: Blackgrass plant response rating [1, 13] | Blackgrass plant response rating [1, 14] | Blackgrass plant response rating [1, 20] | Plant response rating, Corn (corn (Zea mays); [18]) | Plant response rating, Corn (corn (Zea mays); [19]) | Plant response rating, Bromegrass, Downy [4, 18] | Foxtail, Giant plant response rating [6, 17] | Plant response rating, Johnsongrass [8, 18] | Plant response rating, Cupgrass, Woolly [12, 18]
85: Plant response rating, Sunflower [3, 22] | Bromegrass, Downy plant response rating [4, 13] | Foxtail, Green plant response rating [7, 13] | Johnsongrass plant response rating [8, 20] | Surinam Grass plant response rating [11, 20] | Cupgrass, Woolly plant response rating [12, 13]
25: Plant response rating, Morningglory [9, 19]
50: Plant response rating, Galium [2, 21] | Plant response rating, Galium [2, 22] | Bromegrass, Downy plant response rating [4, 20]
0: Sunflower plant response rating [3, 23] | Nightshade, E. B. plant response rating [5, 23] | Plant response rating, Nightshade, E. B. [5, 21] | Plant response rating, Nightshade, E. B. [5, 22] | Nightshade, E. B. plant response rating ([5]; 16 g ai/ha, scale 0 to 100) | Morningglory plant response rating [9, 13] | Morningglory plant response rating [9, 14] | Plant response rating, Morningglory [9, 15] | Morningglory plant response rating [9, 17] | Plant response rating, Morningglory [9, 18] | Morningglory plant response rating [9, 20] | Pigweed plant response rating [10, 13] | Pigweed plant response rating [10, 14] | Plant response rating, Pigweed [10, 15] | Plant response rating, Pigweed [10, 16] | Pigweed plant response rating [10, 17] | Plant response rating, Pigweed [10, 18] | Plant response rating, Pigweed [10, 19]
30: Bromegrass, Downy plant response rating [4, 17]
95: Corn plant response rating (corn (Zea mays); [17]) | Corn plant response rating (corn (Zea mays); [20]) | Bromegrass, Downy plant response rating [4, 14] | Foxtail, Giant plant response rating [6, 13] | Surinam Grass plant response rating [11, 14] | Plant response rating, Surinam Grass [11, 18] | Plant response rating, Cupgrass, Woolly [12, 15]
75: Surinam Grass plant response rating [11, 13]
45: Cupgrass, Woolly plant response rating [12, 17]
80: Blackgrass plant response rating [1, 17] | Surinam Grass plant response rating [11, 17] | Cupgrass, Woolly plant response rating [12, 20]

From patent publication US20100267561A1, “HERBICIDAL PYRIDAZINONE DERIVATIVES” (priority 2007, published 2010)
